A short description of this series: Extraction of hexanol from aqueous solution with trialkylphosphine in alkane or pure trialkylphosphine. It counts as physicochemical.
[1] abbreviates: hexanol extraction without buffer in aqueous phase, mass ratio 9 to 1.
The mark [2] stands for this setting: with ammonium acetate buffer in aqueous phase, mass ratio 9 to 1.

The structures appear in SMILES notation.

In the case of `CCCCCCCCCCCCCC` [none (100% tetradecane), tetradecane], the “Equilibrium pH” value (hexanol extraction without buffer in aqueous phase) was 7.01. Further, under setting [1], the “Aq. Hexanoic acid conc. (after)” value stood at 2.40 g/kg and the “Aq. Hexanoic acid conc. (before)” value came to 3.70 g/kg. Further, under setting [2], the “Aq. Hexanol conc. (after)” value is 2.75 g/kg and the “Org. Hexanol conc.” value is listed as 12.44 g/kg. Also, the “Org. Hexanol conc.” value (without buffer in aqueous phase, mass ratio 9 to 1) is 11.65 g/kg.

These data come from patent US12686694B2, “Method of extracting carbonic acid, aliphatic acids, esters and alcohols from an aqueous medium” (EVONIK OPERATIONS GMBH, priority 2019, dated 2026).
